Test results reported in patent publication US20230233695A1, “MITHRAMYCIN A NANOPARTICLES FOR CANCER TREATMENT” (priority 2021, published 2023).

Experiments:
MEG-01 = assay: XTT cell viability assay, MEG-01; assay type: cell-based; settings: read-out: Viability IC50, MEG-01, chronic myeloid leukemia, BRC:ABL, 72 hours
Protocol: (§1) Cell viability assays. For viability assays, four EWS:Fli1 fusion tumor cell lines (RD-ES, SK-ES-1, A673, and TC-71), one human embryonic kidney cell line (293.T), one ES tumor cell line with ERG fusion (CHLA-25), one fetal kidney cell line (HEK293.T), one hepatoblastoma cell line (HepG2), one chronic myeloid leukemia (MEG-01), and one acute monocytic leukemia (THP-1) cell line were plated at 5000 cells/well in 100 μL growth media in 96-well plates. After overnight incubation, 50 μL of growth media containing mithramycin A (MithA) (Cayman Chemical, Ann Arbor, Mi. Item Number 11434) or boronic acid-conjugated nano-MithA (MANP) (0.12 nM to 500 nM, final) or dimethyl sulfoxide (DMSO, 0.01% v/v) vehicle was added to the wells, and cell viability assays were performed 72 hours later. The cells were incubated with the activated-XTT solution (mixture of 2% final concentration of activation reagent with the XTT reagent) from ATCC (Catalog Number 30-1011K, XTT Cell Proliferation Assay Kit) for 3 hours prior to recording absorbance. The cell viability was determined by measuring the absorbance wavelength at 475 nm and reference wavelength at 650 nm on an Infinite M200 plate reader (Tecan Group, Ltd. Mannedorf, Switzerland). […]

CHLA-25 = assay: XTT cell viability assay, CHLA-25; assay type: cell-based; settings: 72 h, read-out: Viability IC50
Protocol: as §1

NR0B1 = assay: RT-qPCR, NR0B1 mRNA expression; assay type: cell-based; settings: 10 nM, 3 cell lines tested
Protocol: Assessment of mRNA expression by RT-qPCR. Total RNA was extracted from EWS:Fli1^+ cell cultures (TC-71, A673, and RD-ES) exposed to 10 nM of MithA/MANP (final concentration) or DMSO, (0.01% v/v) vehicle and blank polymer for 24 hours by the RNeasy technique with RNeasy columns with on-column DNAse I digestion (Qiagen, Valencia, Calif.) according to the manufacturer's instructions. The concentration and purity of the extracts were determined by UV absorbance at 230/260/280/320 nm wavelengths using a Tecan Infinite M200 spectrophotometer. Template cDNA was synthesized from […] of RNA extract by reverse-transcription using the Quantitect RT kit (Qiagen). Oligonucleotide primer sequences and more detailed information described in Supplemental Table S4). RT-PCR was performed using Quantitect SYBR-green qPCR reagents in a Mastercycler ep Realplex2 instrument (Eppendorf AG, Hamburg, Germany). […] Relative quantification of mRNA expression between MithA/MANP or vehicle/blank polymer treated cells were semi-quantitatively calculated by comparing the average threshold cycle (Ct) for the treated samples to the average Ct for untreated samples (Vehicle or blank polymer. Amplification efficiency was determined for each primer set, and the Pfaffl equation to determine relative fold change in gene expression. Beta-actin was used as the housekeeping gene for normalization.

Female C57BL/6J mice = assay: In vivo toxicity: liver weight and histopathology
Protocol: In vivo toxicity of MithA and MANP. Cohorts of n=6-7 C57BL/6J females, 8-10 wko were randomized to receive either intravenous or intraperitoneal administration of saline control vehicle, blank polymer, MithA, or MANP as described in TABLES 2A and 2B. Body weight loss exceeding 20%, death, morbidity, changes in behavior, and any other sign of local or systemic toxicity were recorded.
The liver was harvested for histopathological assessment, weighed, and fixed in 4% paraformaldehyde for 24 hours in the 4° C. and processed for and embedded in paraffin. After embedding, sections were cut at […] thickness and mounted on poly-L-lysine-coated glass slides. Sections were stained with Ehrlich's Hematoxylin and Eosin-Phloxine solutions, Periodic Acid-Schiff (+/− pretreatment with 1% Diastase for 30 min), or Hall's Bile stain with Picrosirius red counter stain. Slides were then dehydrated, cover slipped and imaged on Nikon E800 microscope for qualitative assessment of liver injury. In vivo toxicity of Mitha and MANP study design. (A) study design for supplemental figures. (B) study design for FIGS. 11A-11Q.

[1] = five doses 2 mg/kg (eq) on alternating days

CO[C@H](C(=O)[C@@H](O)[C@@H](C)O)[C@@H]1Cc2cc3cc(O[C@H]4C[C@@H](O[C@H]5C[C@@H](O)[C@H](O)[C@@H](C)O5)[C@H](O)[C@@H](C)O4)c(C)c(O)c3c(O)c2C(=O)[C@H]1O[C@H]1C[C@@H](O[C@H]2C[C@@H](O[C@H]3C[C@](C)(O)[C@H](O)[C@@H](C)O3)[C@@H](O)[C@@H](C)O2)[C@H](O)[C@@H](C)O1 [MithA, (2S,3S)-2-[(2S,4R,5R,6R)-4-[(2S,4R,5S,6R)-4-[(2S,4S,5R,6R)-4,5-dihydroxy-4,6-dimethyloxan-2-yl]oxy-5-hydroxy-6-methyloxan-2-yl]oxy-5-hydroxy-6-methyloxan-2-yl]oxy-3-[(1 S,3S,4R)-3,4-dihydroxy-1-methoxy-2-oxopentyl]-6-[(2S,4R,5R,6R)-4-[(2S,4R,5S,6R)-4,5-dihydroxy-6-methyloxan-2-yl]oxy-5-hydroxy-6-methyloxan-2-yl]oxy-8,9-dihydroxy-7-methyl-3,4-dihydro-2H-anthracen-1-one]
IC50 (MEG-01): 37.8 nM
IC50 (CHLA-25): 349 nM
NR0B1 mRNA expression (NR0B1): unable to detect significant inhibition
liver weight (Female C57BL/6J mice; 5 consecutive days i.p. 4 mg/kg, vs saline): liver weight reduction
liver weight (Female C57BL/6J mice; 5x2 mg/kg i.v. alternating days): liver weight reduction
liver histology (Female C57BL/6J mice; 5x4 mg/kg i.p.): periportal necrosis with central fatty degeneration, glycogen depletion and bile acid retention
liver histology, Hall's bile stain (Female C57BL/6J mice; [1]): retention of bile in large vacuoles
liver histology, Hematoxylin and Eosin stain (Female C57BL/6J mice; [1]): periportal hepatocellular necrosis and infiltrates of inflammatory cells, and distension of collecting ducts
liver histology, Periodic Acid-Schiff (glycogen) (Female C57BL/6J mice; five doses 2 mg/kg on alternating days): glycogen depletion
